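Interpolation was linear, between the two tested concentrations surrounding the appropriate level; five concentrations were tested over 48 hours in 96-well plates. GI50: concentration for 50% inhibition of growth. The concentration for full growth arrest is given as TGI.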
Legend:
Experiment in all cases: inhibition of tumour cell growth, NCI panel, 48 h
SW-620 colon = system: SW-620 colon
SN12C renal = system: SN12C renal
SK-OV-3 ovarian = system: SK-OV-3 ovarian
HCC-2998 colon = system: HCC-2998 colon
SK-MEL-28 melanoma = system: SK-MEL-28 melanoma
SK-MEL-2 melanoma = system: SK-MEL-2 melanoma
SR leukemia = system: SR leukemia
SNB-19 CNS = system: SNB-19 CNS
KM12 colon = system: KM12 colon
DU-145 prostate = system: DU-145 prostate
HL-60(TB) leukemia = system: HL-60(TB) leukemia
HOP-62 NSCLC = system: HOP-62 NSCLC
HS 578T breast = system: HS 578T breast
SF-295 CNS = system: SF-295 CNS
M14 melanoma = system: M14 melanoma
SF-539 CNS = system: SF-539 CNS
A498 renal = system: A498 renal
PC-3 prostate = system: PC-3 prostate
UACC-257 melanoma = system: UACC-257 melanoma
U251 CNS = system: U251 CNS
HOP-92 NSCLC = system: HOP-92 NSCLC
RXF 393 renal = system: RXF 393 renal
CAKI-1 renal = system: CAKI-1 renal
SK-MEL-5 melanoma = system: SK-MEL-5 melanoma
NCI-H460 lung = system: NCI-H460 lung
NCI-H522 lung = system: NCI-H522 lung
EKVX NSCLC = system: EKVX NSCLC
RPMI-8226 leukemia = system: RPMI-8226 leukemia
786-0 renal = system: 786-0 renal
COLO 205 colon = system: COLO 205 colon
NCI/ADR-RES ovarian = system: NCI/ADR-RES ovarian
BT-549 breast = system: BT-549 breast
HCT-15 colon = system: HCT-15 colon
TK-10 renal = system: TK-10 renal
SNB-75 CNS = system: SNB-75 CNS
ACHN renal = system: ACHN renal
LOX IMVI melanoma = system: LOX IMVI melanoma
OVCAR-4 ovarian = system: OVCAR-4 ovarian
CCRF-CEM leukemia = system: CCRF-CEM leukemia
A549 NSCLC = system: A549 NSCLC
MOLT-4 leukemia = system: MOLT-4 leukemia
OVCAR-3 ovarian = system: OVCAR-3 ovarian
OVCAR-5 ovarian = system: OVCAR-5 ovarian
MDA-MB-231 breast = system: MDA-MB-231 breast
OVCAR-8 ovarian = system: OVCAR-8 ovarian
SF-268 CNS = system: SF-268 CNS
MCF7 breast = system: MCF7 breast
MDA-MB-435 = system: MDA-MB-435
K-562 leukemia = system: K-562 leukemia
UO-31 renal = system: UO-31 renal
T-47D breast = system: T-47D breast
HT29 colon = system: HT29 colon
HCT-116 colon = system: HCT-116 colon
NCI-H23 lung = system: NCI-H23 lung
MALME-3M melanoma = system: MALME-3M melanoma
NCI-H226 lung = system: NCI-H226 lung

SMILES: CC[C@H](Nc1cc(C)nc(N)n1)c1nc2cccc(NCc3ccc(C(=O)NO)cc3)c2c(=O)n1-c1ccccc1
- GI50 (SW-620 colon): 1.61 µM
- TGI (SW-620 colon): 4.19 µM
- GI50 (SN12C renal): 1.96 µM
- TGI (SN12C renal): 4.72 µM
- GI50 (SK-OV-3 ovarian): 2.52 µM
- TGI (SK-OV-3 ovarian): 8.88 µM
- GI50 (HCC-2998 colon): 1.82 µM
- TGI (HCC-2998 colon): 3.34 µM
- GI50 (SK-MEL-28 melanoma): 1.83 µM
- TGI (SK-MEL-28 melanoma): 3.9 µM
- GI50 (SK-MEL-2 melanoma): 2.58 µM
- TGI (SK-MEL-2 melanoma): 7.37 µM
- GI50 (SR leukemia): 0.679 µM
- TGI (SR leukemia): 13 µM
- GI50 (SNB-19 CNS): 1.83 µM
- TGI (SNB-19 CNS): 4.77 µM
- GI50 (KM12 colon): 1.69 µM
- TGI (KM12 colon): 3.31 µM
- GI50 (DU-145 prostate): 2.99 µM
- TGI (DU-145 prostate): 10.6 µM
- GI50 (HL-60(TB) leukemia): 2.59 µM
- TGI (HL-60(TB) leukemia): 6.1 µM
- GI50 (HOP-62 NSCLC): 2.05 µM
- TGI (HOP-62 NSCLC): 4.47 µM
- GI50 (HS 578T breast): 2.36 µM
- TGI (HS 578T breast): 9.97 µM
- GI50 (SF-295 CNS): 1.66 µM
- TGI (SF-295 CNS): 3.48 µM
- GI50 (M14 melanoma): 1.85 µM
- TGI (M14 melanoma): 3.88 µM
- GI50 (SF-539 CNS): 1.67 µM
- TGI (SF-539 CNS): 3.26 µM
- GI50 (A498 renal): 1.51 µM
- TGI (A498 renal): 3.33 µM
- GI50 (PC-3 prostate): 1.83 µM
- TGI (PC-3 prostate): 4.41 µM
- GI50 (UACC-257 melanoma): 2.17 µM
- TGI (UACC-257 melanoma): 7.41 µM
- GI50 (U251 CNS): 1.47 µM
- TGI (U251 CNS): 3.03 µM
- GI50 (HOP-92 NSCLC): 1.33 µM
- TGI (HOP-92 NSCLC): 3.54 µM
- GI50 (RXF 393 renal): 1.48 µM
- TGI (RXF 393 renal): 2.9 µM
- GI50 (CAKI-1 renal): 3.33 µM
- TGI (CAKI-1 renal): 14.2 µM
- GI50 (SK-MEL-5 melanoma): 1.96 µM
- TGI (SK-MEL-5 melanoma): 4.41 µM
- GI50 (NCI-H460 lung): 1.94 µM
- TGI (NCI-H460 lung): 5.68 µM
- GI50 (NCI-H522 lung): 1.06 µM
- TGI (NCI-H522 lung): 3.19 µM
- GI50 (EKVX NSCLC): 3.32 µM
- TGI (EKVX NSCLC): 12.2 µM
- GI50 (RPMI-8226 leukemia): 2.08 µM
- TGI (RPMI-8226 leukemia): 7.4 µM
- GI50 (786-0 renal): 1.85 µM
- TGI (786-0 renal): 3.79 µM
- GI50 (COLO 205 colon): 1.56 µM
- TGI (COLO 205 colon): 3.79 µM
- GI50 (NCI/ADR-RES ovarian): 77.2 µM
- TGI (NCI/ADR-RES ovarian): > 100 µM
- GI50 (BT-549 breast): 2.44 µM
- TGI (BT-549 breast): 6.57 µM
- GI50 (HCT-15 colon): 10.4 µM
- TGI (HCT-15 colon): 25.1 µM
- GI50 (TK-10 renal): 4.28 µM
- TGI (TK-10 renal): 16.9 µM
- GI50 (SNB-75 CNS): 1.12 µM
- TGI (SNB-75 CNS): 3.5 µM
- GI50 (ACHN renal): 10.5 µM
- TGI (ACHN renal): 22.7 µM
- GI50 (LOX IMVI melanoma): 1.78 µM
- TGI (LOX IMVI melanoma): 3.29 µM
- GI50 (OVCAR-4 ovarian): 1.61 µM
- TGI (OVCAR-4 ovarian): 4.12 µM
- GI50 (CCRF-CEM leukemia): 1.62 µM
- TGI (CCRF-CEM leukemia): 11.4 µM
- GI50 (A549 NSCLC): 3.79 µM
- TGI (A549 NSCLC): 16.4 µM
- GI50 (MOLT-4 leukemia): 2.52 µM
- TGI (MOLT-4 leukemia): 10.2 µM
- GI50 (OVCAR-3 ovarian): 1.86 µM
- TGI (OVCAR-3 ovarian): 4.39 µM
- GI50 (OVCAR-5 ovarian): 2.4 µM
- TGI (OVCAR-5 ovarian): 7.59 µM
- GI50 (MDA-MB-231 breast): 1.62 µM
- TGI (MDA-MB-231 breast): 3.16 µM
- GI50 (OVCAR-8 ovarian): 2.04 µM
- TGI (OVCAR-8 ovarian): 6.13 µM
- GI50 (SF-268 CNS): 1.82 µM
- TGI (SF-268 CNS): 3.49 µM
- GI50 (MCF7 breast): 1.98 µM
- TGI (MCF7 breast): 6.39 µM
- GI50 (MDA-MB-435): 1.64 µM
- TGI (MDA-MB-435): 3.12 µM
- GI50 (K-562 leukemia): 2.56 µM
- TGI (K-562 leukemia): 10 µM
- GI50 (UO-31 renal): 10.2 µM
- TGI (UO-31 renal): 24.2 µM
- GI50 (T-47D breast): 1.54 µM
- TGI (T-47D breast): 6.13 µM
- GI50 (HT29 colon): 2.69 µM
- TGI (HT29 colon): 10.4 µM
- GI50 (HCT-116 colon): 1.55 µM
- TGI (HCT-116 colon): 3.72 µM
- GI50 (NCI-H23 lung): 2.01 µM
- TGI (NCI-H23 lung): 4.72 µM
- GI50 (MALME-3M melanoma): 1.39 µM
- TGI (MALME-3M melanoma): 2.93 µM
- GI50 (NCI-H226 lung): 2.86 µM
- TGI (NCI-H226 lung): 14.9 µM
